In ChEMBL document CHEMBL3885861, “Open TG-GATES”:

Species on record: Rattus norvegicus
Assay: Open TG-GATES - Regimen: Single
Format: toxicity, organism-based, Sprague-Dawley
Set-up: regimen Single, gender Male, age 6 weeks
Conditions: in vivo, po, 5 mg/kg, route gavage; for TG / TP / gamma-GTP / A/G / ALP / ALT / AST / BUN / CRE / Ca / Cl / DBIL / GLC / IP / K / LDH / Na / PL / RALB / TBIL / TC: tissue Plasma; for APTT / Bas / Eos / Fbg / Hb / Ht / Lym / MCH / MCHC / MCV / Mono / Neu / PT / Plat / RBC / Ret / WBC: tissue Blood; for KIDNEY_L / KIDNEY_R / KIDNEY_TOTAL: tissue Kidney; for LIVER: tissue Liver

SMILES: COc1ccc2c(c1)c(CC(=O)O)c(C)n2C(=O)c1ccc(Cl)cc1 [INDOMETHACIN]
- TG (3 h, dose level Low): 59.6 mg/dL
- TP (3 h, dose level Low): 5.4 g/dL
- gamma-GTP (3 h, dose level Low): 1 IU/L
- TERMINAL_BW (6 h, dose level High): 202.4 g
- TERMINAL_BW (6 h, dose level Low): 222.1 g
- APTT (6 h, dose level High): 16.9 s
- Bas (6 h, dose level High): 0%
- Eos (6 h, dose level High): 0.8%
- Fbg (6 h, dose level High): 205.2 mg/dL
- Hb (6 h, dose level High): 12.7 g/dL
- Ht (6 h, dose level High): 38.6%
- Lym (6 h, dose level High): 69.4%
- MCH (6 h, dose level High): 21.3 pg
- MCHC (6 h, dose level High): 32.8%
- MCV (6 h, dose level High): 64.9 fL
- Mono (6 h, dose level High): 13%
- Neu (6 h, dose level High): 16.8%
- PT (6 h, dose level High): 12.8 s
- Plat (6 h, dose level High): 112.7 x10_4/uL
- RBC (6 h, dose level High): 594.6 x10_4/ul
- Ret (6 h, dose level High): 10.3%
- WBC (6 h, dose level High): 87.2 x10_2/uL
- APTT (6 h, dose level Low): 18.4 s
- Eos (6 h, dose level Low): 0.4%
- Fbg (6 h, dose level Low): 230 mg/dL
- Hb (6 h, dose level Low): 13.9 g/dL
- Ht (6 h, dose level Low): 38%
- Lym (6 h, dose level Low): 79.6%
- MCH (6 h, dose level Low): 22.6 pg
- MCHC (6 h, dose level Low): 36.4%
- MCV (6 h, dose level Low): 62 fL
- Mono (6 h, dose level Low): 2.8%
- Neu (6 h, dose level Low): 15.4%
- PT (6 h, dose level Low): 12.4 s
- Plat (6 h, dose level Low): 118.2 x10_4/uL
- RBC (6 h, dose level Low): 613.2 x10_4/ul
- Ret (6 h, dose level Low): 8%
- WBC (6 h, dose level Low): 100.8 x10_2/uL
- KIDNEY_L (6 h, dose level High): 0.9 g
- KIDNEY_R (6 h, dose level High): 0.9 g
- KIDNEY_TOTAL (6 h, dose level High): 1.9 g
- KIDNEY_L (6 h, dose level Low): 1 g
- KIDNEY_R (6 h, dose level Low): 1 g
- LIVER (6 h, dose level High): 9 g
- LIVER (6 h, dose level Low): 9.1 g
- A/G (6 h, dose level High): 1.9
- ALP (6 h, dose level High): 908.6 IU/L
- ALT (6 h, dose level High): 35.6 IU/L
- AST (6 h, dose level High): 69 IU/L
- BUN (6 h, dose level High): 13.6 mg/dL
- CRE (6 h, dose level High): 0.5 mg/dL
- Ca (6 h, dose level High): 10.2 mg/dL
- Cl (6 h, dose level High): 108.2 meq/L
- DBIL (6 h, dose level High): 0.014 mg/dL
- GLC (6 h, dose level High): 194.8 mg/dL
- IP (6 h, dose level High): 9.4 mg/dL
- K (6 h, dose level High): 5.1 meq/L
- LDH (6 h, dose level High): 186.4 IU/L
- Na (6 h, dose level High): 137.4 meq/L
- PL (6 h, dose level High): 120 mg/dL
- RALB (6 h, dose level High): 3.8 g/dL
- TBIL (6 h, dose level High): 0.3 mg/dL
- TC (6 h, dose level High): 68.4 mg/dL
- TG (6 h, dose level High): 48 mg/dL
- TP (6 h, dose level High): 5.8 g/dL
- gamma-GTP (6 h, dose level High): 1.2 IU/L
- A/G (6 h, dose level Low): 1.5
- ALP (6 h, dose level Low): 938.4 IU/L
- ALT (6 h, dose level Low): 36.2 IU/L
- AST (6 h, dose level Low): 75.8 IU/L
- BUN (6 h, dose level Low): 12 mg/dL
- CRE (6 h, dose level Low): 0.4 mg/dL
- Ca (6 h, dose level Low): 10.4 mg/dL
- Cl (6 h, dose level Low): 103.2 meq/L
- DBIL (6 h, dose level Low): 0.076 mg/dL
- GLC (6 h, dose level Low): 197.2 mg/dL
- IP (6 h, dose level Low): 9.2 mg/dL
- K (6 h, dose level Low): 4 meq/L
- LDH (6 h, dose level Low): 231 IU/L
- Na (6 h, dose level Low): 140.8 meq/L
- PL (6 h, dose level Low): 135.2 mg/dL
- RALB (6 h, dose level Low): 3.3 g/dL
- TBIL (6 h, dose level Low): 0.1 mg/dL
- TC (6 h, dose level Low): 77.4 mg/dL
- TG (6 h, dose level Low): 62.8 mg/dL
- TP (6 h, dose level Low): 5.4 g/dL
- gamma-GTP (6 h, dose level Low): 0.8 IU/L
- TERMINAL_BW (9 h, dose level High): 198.4 g
- TERMINAL_BW (9 h, dose level Low): 221 g
- APTT (9 h, dose level High): 16.9 s
- Bas (9 h, dose level High): 0%
- Eos (9 h, dose level High): 0.6%
- Fbg (9 h, dose level High): 213.6 mg/dL
- Hb (9 h, dose level High): 13.2 g/dL
- Ht (9 h, dose level High): 39.6%
- Lym (9 h, dose level High): 84.2%
- MCH (9 h, dose level High): 21.6 pg
- MCHC (9 h, dose level High): 33.3%
- MCV (9 h, dose level High): 65 fL
- Mono (9 h, dose level High): 7.8%
- Neu (9 h, dose level High): 7.4%
- PT (9 h, dose level High): 12.6 s
- Plat (9 h, dose level High): 102.6 x10_4/uL
- RBC (9 h, dose level High): 609.4 x10_4/ul
- Ret (9 h, dose level High): 9.6%
- WBC (9 h, dose level High): 107 x10_2/uL
- APTT (9 h, dose level Low): 18.2 s
- Eos (9 h, dose level Low): 0.4%
- Fbg (9 h, dose level Low): 228.6 mg/dL
- Hb (9 h, dose level Low): 13.7 g/dL
- Ht (9 h, dose level Low): 37.7%
- Lym (9 h, dose level Low): 76.4%
- MCH (9 h, dose level Low): 22.2 pg
- MCHC (9 h, dose level Low): 36.4%
- MCV (9 h, dose level Low): 60.8 fL
- Mono (9 h, dose level Low): 3%
- Neu (9 h, dose level Low): 18%
- PT (9 h, dose level Low): 12.2 s
- Plat (9 h, dose level Low): 126.8 x10_4/uL
- RBC (9 h, dose level Low): 620.4 x10_4/ul
- Ret (9 h, dose level Low): 7.9%
- WBC (9 h, dose level Low): 86 x10_2/uL
- KIDNEY_L (9 h, dose level High): 0.9 g
- KIDNEY_R (9 h, dose level High): 0.9 g
- KIDNEY_TOTAL (9 h, dose level High): 1.9 g
- KIDNEY_R (9 h, dose level Low): 1 g
- LIVER (9 h, dose level High): 8.1 g
- LIVER (9 h, dose level Low): 8.6 g
- A/G (9 h, dose level High): 2.5
- ALP (9 h, dose level High): 961.6 IU/L
- ALT (9 h, dose level High): 34.6 IU/L
- AST (9 h, dose level High): 66 IU/L
- BUN (9 h, dose level High): 12.6 mg/dL
- CRE (9 h, dose level High): 0.5 mg/dL
- Ca (9 h, dose level High): 10.1 mg/dL
- Cl (9 h, dose level High): 105.6 meq/L
- DBIL (9 h, dose level High): 0.042 mg/dL
- GLC (9 h, dose level High): 183.4 mg/dL
- IP (9 h, dose level High): 9.8 mg/dL
- K (9 h, dose level High): 5.3 meq/L
- LDH (9 h, dose level High): 192.8 IU/L
- Na (9 h, dose level High): 137.2 meq/L
- PL (9 h, dose level High): 117 mg/dL
- RALB (9 h, dose level High): 3.9 g/dL
- TBIL (9 h, dose level High): 0.5 mg/dL
- TC (9 h, dose level High): 65.6 mg/dL
- TG (9 h, dose level High): 34.4 mg/dL
- TP (9 h, dose level High): 5.4 g/dL
